Laboratory results taken from patent publication US7056506B2, “Methods for detecting and inhibiting angiogenesis” (The Regents of the University of California, priority 1998, dated 2006).

Key:
α5^+ HT29 cells = test: Cell adhesion assay, adhesion to fibronectin; type: cell-based, human
Source text: (§1) HT29 integrin α5β1^+ cells, integrin α5β1^− colon carcinoma cells (Varner et al., Mol. Biol. Cell 6:725–740 (1995)), and chick embryo fibroblasts (CEF's) were maintained in DMEM high glucose supplemented with 10% fetal bovine serum (FBS) and gentamycin. Human umbilical vein endothelial cells (HUVEC's) were maintained in M199 medium containing sodium bicarbonate, HEPES, heparin, endothelial cell growth supplement, 20% FBS and gentamycin. Culture media and reagents were from Irvine Scientific (Irvine, Calif.).
(§2) The wells of 48 well culture dishes (Costar, Inc.) were coated with 1 μg/ml vitronectin, 2 μg/ml fibronectin (chick embryo fibroblasts and HUVEC's) or 10 μg/ml fibronectin (HT29-α5^+ cells) for 1 hr at 37° C., then blocked with 2% heat denatured BSA in PBS for 1 hr. Fifty thousand cells in 250 μl of adhesion buffer were added to triplicate wells containing 250 μl of a solution of 50 μg/ml of an anti-α5β1 function blocking antibody (NKI-SAM-1, JBS5 or IIA1), 50 μg/ml of an anti-α5β1 non-function blocking antibody (HA5 or VC5; Pharmingen, Inc.; San Diego Calif.), 10 μM cyclic peptides (Koivunen et al., J. Biol. Chem. 268:20205–20210 (1993); Koivunen et al., J. Cell Biol. 124:373380 (1994)), 0–10 μM SJ749 ((S)-2-{(2,4,6-trimethylphenyl)sulfonyl}amino-3{7-benzyloxycarbonyl-8-(2-pyridinylaminomethyl)-1-oxa-2,7-diazaspiro-{4,4}-non-2-en-3-yl}carbonylamino}propionic acid)), 50 μg/ml of LM609, an anti-αVβ3 function blocking antibody, 50 μg/ml P4C10, an anti-β1 function blocking antibody, 50 μg/ml of an anti-fibronectin cell binding domain monoclonal antibody or 50 μg/ml of an anti-fibronectin N-terminus monoclonal antibody in adhesion buffer (HEPES buffered Hanks balanced salt solution, HBSS, containing 1% BSA, 2 mM MgCl2, 2 mM CaCl2 and 0.2 mM MnCl2).
Cells were allowed to adhere to dishes for 20 min at 37° C. Nonadherent cells were removed by washing each well four times with 500 μl of warm adhesion buffer. […] Crystal violet was extracted by incubation for 15 min in 10% acetic acid and absorbance at 562 nm determined as an indicator of number of cells bound. […]

[1] = test system: HT29 colon carcinoma cells lacking α5β1 expression; test: Chick CAM tumor assay, HT29; type: in vivo; conditions: HT29 tumors on CAM
Description: The chick CAM tumor assay was performed by placing ten million tumor cells on the surface of a CAM, and culturing the cells for one week. The resulting tumors were excised and cut into 50 mg fragments. […] Forty-eight hours later, CAM's were excised from the egg and the number of blood vessels entering the tumors were counted (as vessel branch points).
Data was presented as mean blood vessel number per treatment group (+/− standard error of measurement). Each treatment group incorporated at least ten tumors per experiment. Representative tumors were photographed at 10× magnification. Tumors were excised from the egg and tumor weights were determined for each tumor Data was presented as mean tumor weight per treatment group (+/− standard error of measurement). Statistical analyses were performed using Student's t-test.
HT29 colon carcinoma cells lacking α5β1 expression were grown on the CAM's of 10-day old embryos. These tumor cells secrete several angiogenic growth factors, including VEGF, TGFα, TGFβ, TNFα, and IL-8 (Anzano et al., Cancer Res. 49:2898–2904 (1989); Varner et. al., supra, 1995; Ellis et al., J. Biol. Chem. 273:1052–1057 (1998)). Integrin α5β1 negative tumor cells were used to distinguish the potential anti-tumor effects from anti-vasculature effects of integrin α5β1 antagonists.

[2] = test system: chick embryo fibroblasts (CEF's); test: Cell adhesion assay, adhesion to fibronectin; type: cell-based
Source text: as §1, §2
(§3) Cells were allowed to adhere to dishes for 20 min at 37° C. Nonadherent cells were removed by washing each well four times with 500 μl of warm adhesion buffer. Adherent cells were then fixed for 15 min with 3.7% paraformaldehyde in PBS and stained with a 2% crystal violet solution. After extensive water washing to remove excess crystal violet, plates were dried overnight. Crystal violet was extracted by incubation for 15 min in 10% acetic acid and absorbance at 562 nm determined as an indicator of number of cells bound. Each experiment was performed in triplicate, with triplicate samples per condition.

[3] = test system: Human umbilical vein endothelial cells (HUVEC's); test: Cell adhesion assay, adhesion to fibronectin; type: cell-based
Source text: as §1, §2, §3

[4] = test system: VEGF-induced angiogenesis on the chick CAM; test: In ovo chick CAM angiogenesis assay, VEGF stimulated; type: in vivo; conditions: for effect of applied matrix protein on the angiogenic effect of VEGF: matrix protein applied to VEGF stimulated CAM's
Source text: (§4) Ten day old embryonated chicken eggs (McIntyre Poultry; Ramona Calif.) were candled to illuminate blood vessels under the shell and an area with a minimum of small blood vessels is identified. The CAM was dropped away from the eggshell in this area by grinding a small hole in the mineralized shell and applying pressure to the underlying inner shell membrane. This procedure caused an air pocket to shift from the wide end of the egg to the identified area and forcing a circular region of the CAM approximately 2 cm in diameter to drop away from the shell. A window was cut in the egg shell and a cortisone acetate pre-treated filter disc 5 mm in diameter that had been saturated in 1 μg/ml bFGF, VEGF, TNFα, IL-8 (Genzyme, Inc.; Cambridge Mass.) or saline was placed on the CAM. The window in the shell was sealed with adhesive tape and the egg was incubated for four days.
(§5) Anti-fibronectin antibodies (25 μg in 25 μl) also were applied topically to the CAM.
(§6) Fibronectin, vitronectin and fibronectin fragments (59 pmol in a final volume of 25 μl) were applied to stimulated or unstimulated CAM's. Peptide or small molecule antagonists of α5β1 (at a final serum concentration of 0–25 μM) also were injected intravenously into the chick circulation 24 hr later. CAM's were harvested on the fourth day of stimulation. Blood vessel branch points in the 5 mm filter disk area were counted at 30× magnification in a blinded fashion as a size-independent quantitative indicator of vascular sprouting in response to growth factors. Angiogenesis is characterized by the sprouting of new vessels in response to growth factors. Thus, counting of blood vessel branch points is a useful quantitative means of obtaining an angiogenic index (Brooks et al., In “Methods in Molecular Biology” (Humana Press 1999). At least ten embryos were used per treatment group. Each experiment was performed a minimum of three times.
(§7) Data was evaluated in terms of average number of blood vessel branch points per treatment group +/−standard error of measurement . Statistical analyses were performed using Student's t-test. Representative CAMS from each treatment group were photographed at 10X magnification. In some cases, CAM tissue excised from the egg was frozen in OCT (Baxter; McGraw Park Ill.) in liquid nitrogen, cut into 5 μm sections, air dried and processed for immunohistochemical analysis as described in Example I, except without fixation.

HUVEC's = test: Cell migration assay on fibronectin; type: cell-based, human
Description: The lower side of 8 μm pore transwell inserts (Costar, Inc.) were coated with 2 μg/ml of fibronectin, collagen (Collaborative Biomedical Products; Bedford Mass.) or no protein for 1 hr and were blocked with 2% BSA in PBS for 1 hr. The inserts then were placed into 24 well culture dishes containing 500 μl migration buffer in the lower chamber. Twenty-five thousand HUVEC's in 50 μl of migration buffer (HEPES buffered M199 medium containing 1% BSA, 2 mM MgCl2, 2 mM CaCl2 and 0.2 mM MnCl2) were added to the upper chamber of duplicate inserts containing 50 μl of a solution of 50 μg/ml of anti-α5β1 function blocking antibody (NKI-SAM-1, JBS5 or IIA1), 50 μg/ml of anti-α5β1 non-function blocking antibody (HA5 or VC5), or 50 μg/ml of LM609 (an anti-αVβ3 function blocking antibody) in migration buffer, or migration buffer alone.
Cells were allowed to migrate from the upper to the lower chamber for 4 hr at 37° C. Nonmigratory cells were removed from the upper surface by wiping the upper side with an absorbant tip, and cells that had migrated to the lower side of the transwell insert were fixed for 15 min with 3.7% paraformaldehyde in PBS, then stained with a 2% crystal violet solution. After extensive water washing to remove excess crystal violet, the number of cells that had migrated were counted in three representative high power (200×) fields per insert. […]

[5] = test system: growth factor-induced angiogenesis in chick embryos; test: Chick CAM angiogenesis assay, systemic administration, growth factor not specified; type: in vivo; conditions: chick embryo, read-out: amount inhibiting angiogenesis by 50% (converted)
Source text: (§8) Ten day old embryonated chicken eggs (McIntyre Poultry; Ramona Calif.) were candled to illuminate blood vessels under the shell and an area with a minimum of small blood vessels is identified. The CAM was dropped away from the eggshell in this area by grinding a small hole in the mineralized shell and applying pressure to the underlying inner shell membrane. This procedure caused an air pocket to shift from the wide end of the egg to the identified area and forcing a circular region of the CAM approximately 2 cm in diameter to drop away from the shell. […]
(§9) Fibronectin, vitronectin and fibronectin fragments (59 pmol in a final volume of 25 μl) were applied to stimulated or unstimulated CAM's. […] Blood vessel branch points in the 5 mm filter disk area were counted at 30× magnification in a blinded fashion as a size-independent quantitative indicator of vascular sprouting in response to growth factors. […] Thus, counting of blood vessel branch points is a useful quantitative means of obtaining an angiogenic index (Brooks et al., In “Methods in Molecular Biology” (Humana Press 1999). At least ten embryos were used per treatment group. Each experiment was performed a minimum of three times.
(§10) Data was evaluated in terms of average number of blood vessel branch points per treatment group +/−standard error of measurement . […]

[6] = test system: bFGF-induced angiogenesis on the chick CAM; test: In ovo chick CAM angiogenesis assay, bFGF stimulated; type: in vivo
Source text: as §4, §5, §6, §7

[7] = test system: blood vessels of unstimulated CAM's; test: In ovo chick CAM angiogenesis assay, unstimulated CAM's; type: in vivo; conditions: absence of growth factor
Source text: as §8, §9, §10

[8] = matrix protein applied to bFGF stimulated CAM's

Molecule	effect on adhesion to fibronectin (α5^+ HT29 cells)	effect on tumor size [1]	tumors smaller than control treated tumors [1] [%]	effect on adhesion to fibronectin [2]	effect on adhesion to fibronectin [3]	effect on VEGF angiogenesis ([4]; VEGF stimulated CAM)	effect on endothelial cell migration on fibronectin (HUVEC's)	IC50 [5] [nM]	inhibition of bFGF-induced angiogenesis (blood vessel branch points) ([6]; bFGF stimulated CAM)	effect of applied matrix protein on the angiogenic effect of VEGF [4]	effect on blood vessels / angiogenesis of unstimulated CAM's [7]	enhancement of growth factor stimulated angiogenesis [6, 8]	effect of applied matrix protein on bFGF stimulated angiogenesis [6, 8]
CRRETAWAC	significantly inhibited	induced tumor regression	31	significantly inhibited	significantly inhibited	failed to block	interfered	60	90+/−6%				
fibronectin: intact human fibronectin										did not potentiate	neither fibronectin nor vitronectin promoted angiogenesis	at least 46+/−11%	
vitronectin: vitronectin, extracellular matrix protein applied to CAM's (protein) DQESCKGRCTEGFNVDKKCQCDELCSYYQSCCTDYTAECKPQVTRGDVFTMPEDEYTVYDDGEEKNNATVHEQVGGPSLTSDLQAQSKGNPEQTPVLKPEEEAPAPEVGASKPEGIDSRPETLHPGRPQPPAEEELCSGKPFDAFTDLKNGSLFAFRGQYCYELDEKAVRPGYPKLIRDVWGIEGPIDAAFTRINCQGKTYLFKGSQYWRFEDGVLDPDYPRNISDGFDGIPDNVDAALALPAHSYSGRERVYFFKGKQYWEYQFQHQPSQEECEGSSLSAVFEHFAMMQRDSWEDIFELLFWGRTSAGTRQPQFISRDWHGVPGQVDAAMAGRIYISGMAPRPSLAKKQRFRHRNRKGYRSQRGHSRGRNQNSRRPSRATWLSLFSSEESNLGANNYDDYRMDWLVPATCEPIQSVFFFSGDKYYRVNLRTRRVDTVDPPYPRSIAQYWLGCPAPGHL										did not potentiate	neither fibronectin nor vitronectin promoted angiogenesis		no effect
